Laboratory results taken from patent publication US20230075856A1, “CYCLIC SULFAMIDE COMPOUNDS FOR TREATMENT OF HBV” (Assembly Biosciences, Inc., priority 2018, published 2023).

Each molecule was assayed on HBV viral load production from HepAD38 cells (assay: Viral production from HepAD38 cells: viral load in supernatant by qPCR of the HBV core sequence). Details: 5 days incubation, qPCR of supernatant HBV DNA vs DMSO control, read-out: viral load lowering EC50 (Activity).
Type: cell-based
In short: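 Viral load was measured by qPCR of the HBV core region in supernatant, quantified against DNA standards and compared with DMSO wells. Cells (50,000/well, tetracycline withdrawn, 2% FBS) received compound from 10 μM final for 5 days; EC50 from four-parameter nonlinear regression.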

Compound | EC50 [µM]
CN1C(C(=O)Nc2ccc(F)c(Cl)c2)CC(C(=O)NCc2ncc(-c3ccc(F)cc3)s2)NS1(=O)=O (single isomer, unassigned) [1153-ISOMER-B, N3-(3-chloro-4-fluoro-phenyl)-N5-[[5-(4-fluorophenyl)thiazol-2-yl]methyl]-2-methyl-1,1-dioxo-1,2,6-thiadiazinane-3,5-dicarboxamide] | 0.1 to 10
CN1C(C(=O)Nc2ccc(F)c(Cl)c2)CC(C(=O)NCC2CCCCC2)NS1(=O)=O (single isomer, unassigned) [1160-ISOMER-B, N3-(3-chloro-4-fluoro-phenyl)-N5-(cyclohexylmethyl)-2-methyl-1,1-dioxo-1,2,6-thiadiazinane-3,5-dicarboxamide] | 0.1 to 10
CN(C)CCCCc1cnn(-c2ncc(CNC(=O)C3CC(C(=O)Nc4ccc(F)c(Cl)c4)N(C)S(=O)(=O)N3)s2)c1 (single isomer, unassigned) [1197-ISOMER-B, N3-(3-chloro-4-fluoro-phenyl)-N5-[[2-[4-[4-(dimethylamino)butyl]pyrazol-1-yl]thiazol-5-yl]methyl]-2-methyl-1,1-dioxo-1,2,6-thiadiazinane-3,5-dicarboxamide] | 0.05 to 0.1
CN1C(C(=O)Nc2ccc(F)c(Cl)c2)CC(C(=O)NCc2cnc(Cl)s2)NS1(=O)=O (single isomer, unassigned) [1199-ISOMER-B, N3-(3-chloro-4-fluoro-phenyl)-N5-[(2-chlorothiazol-5-yl)methyl]-2-methyl-1,1-dioxo-1,2,6-thiadiazinane-3,5-dicarboxamide] | 0.1 to 10
CN1C(C(=O)Nc2ccc(F)c(Cl)c2)CC(C(=O)NCc2nc(C(F)(F)F)cs2)NS1(=O)=O (single isomer, unassigned) [1202-ISOMER-B, N3-(3-chloro-4-fluoro-phenyl)-2-methyl-1,1-dioxo-N5-[[4-(trifluoromethyl)thiazol-2-yl]methyl]-1,2,6-thiadiazinane-3,5-dicarboxamide] | < 0.05
COC(=O)N1CCC(NC(=O)C2CC(C(=O)Nc3ccc(F)c(Cl)c3)N(C)S(=O)(=O)N2)CC1 (single isomer, unassigned) [Compound 477-ISOMER-B, methyl 4-[[5-[(3-chloro-4-fluoro-phenyl)carbamoyl]-6-methyl-1,1-dioxo-1,2,6-thiadiazinane-3-carbonyl]amino]piperidine-1-carboxylate] | 0.1 to 10
Cc1cc(CNC(=O)C2CC(C(=O)Nc3ccc(F)c(Cl)c3)N(C)S(=O)(=O)N2)n(C)n1 (single isomer, unassigned) [Compound 482-ISOMER-B, N3-(3-chloro-4-fluoro-phenyl)-N5-[(2,5-dimethylpyrazol-3-yl)methyl]-2-methyl-1,1-dioxo-1,2,6-thiadiazinane-3,5-dicarboxamide] | 0.1 to 10
CN1C(C(=O)Nc2ccc(F)c(Cl)c2)CC(C(=O)NCc2cnc(C(F)(F)F)s2)NS1(=O)=O (single isomer, unassigned) [Compound 498-ISOMER-B, N3-(3-chloro-4-fluoro-phenyl)-2-methyl-1,1-dioxo-N5-[[2-(trifluoromethyl)thiazol-5-yl]methyl]-1,2,6-thiadiazinane-3,5-dicarboxamide] | 0.05 to 0.1
Cc1csc(CNC(=O)C2CC(C(=O)Nc3ccc(F)c(Cl)c3)N(C)S(=O)(=O)N2)n1 (single isomer, unassigned) [Compound 686-ISOMER-B, N3-(3-chloro-4-fluoro-phenyl)-2-methyl-N5-[(4-methylthiazol-2-yl)methyl]-1,1-dioxo-1,2,6-thiadiazinane-3,5-dicarboxamide] | < 0.05
Cc1cnc(CNC(=O)C2CC(C(=O)Nc3ccc(F)c(Cl)c3)N(C)S(=O)(=O)N2)s1 (single isomer, unassigned) [Compound 687-ISOMER-B, N3-(3-chloro-4-fluoro-phenyl)-2-methyl-N5-[(5-methylthiazol-2-yl)methyl]-1,1-dioxo-1,2,6-thiadiazinane-3,5-dicarboxamide] | < 0.05
CN1C(C(=O)Nc2ccc(F)c(Cl)c2)CC(C(=O)NCc2nc3ccccc3s2)NS1(=O)=O (single isomer, unassigned) [Compound 689-ISOMER-B, N5-(1,3-benzothiazol-2-ylmethyl)-N3-(3-chloro-4-fluoro-phenyl)-2-methyl-1,1-dioxo-1,2,6-thiadiazinane-3,5-dicarboxamide] | < 0.05
CN1C(C(=O)Nc2ccc(F)c(Cl)c2)CC(C(=O)NCc2cnc(-c3ccccc3)s2)NS1(=O)=O (single isomer, unassigned) [Compound 691-ISOMER-B, N3-(3-chloro-4-fluoro-phenyl)-2-methyl-1,1-dioxo-N5-[(2-phenylthiazol-5-yl)methyl]-1,2,6-thiadiazinane-3,5-dicarboxamide] | < 0.05

Same assay, conditions: Hepatitis B virus, HePAD38, 120 h, 5 days incubation, qPCR of supernatant HBV DNA vs DMSO control, read-out: viral load lowering EC50 (Activity)

Compound | EC50 [µM]
CN1C(C(=O)Nc2ccc(F)c(Cl)c2)CC(C(=O)NCc2ncc(-c3ccc(F)cc3)s2)NS1(=O)=O (single isomer, unassigned) [1153-ISOMER-A, N3-(3-chloro-4-fluoro-phenyl)-N5-[[5-(4-fluorophenyl)thiazol-2-yl]methyl]-2-methyl-1,1-dioxo-1,2,6-thiadiazinane-3,5-dicarboxamide] | < 0.05
CN1C(C(=O)Nc2ccc(F)c(Cl)c2)CC(C(=O)NCC2CCCCC2)NS1(=O)=O (single isomer, unassigned) [1160-ISOMER-A, N3-(3-chloro-4-fluoro-phenyl)-N5-(cyclohexylmethyl)-2-methyl-1,1-dioxo-1,2,6-thiadiazinane-3,5-dicarboxamide] | 0.05 to 0.1
CN(C)CCCCc1cnn(-c2ncc(CNC(=O)C3CC(C(=O)Nc4ccc(F)c(Cl)c4)N(C)S(=O)(=O)N3)s2)c1 (single isomer, unassigned) [1197-ISOMER-A, N3-(3-chloro-4-fluoro-phenyl)-N5-[[2-[4-[4-(dimethylamino)butyl]pyrazol-1-yl]thiazol-5-yl]methyl]-2-methyl-1,1-dioxo-1,2,6-thiadiazinane-3,5-dicarboxamide] | 0.1 to 10
CN1C(C(=O)Nc2ccc(F)c(Cl)c2)CC(C(=O)NCc2cnc(Cl)s2)NS1(=O)=O (single isomer, unassigned) [1199-ISOMER-A, N3-(3-chloro-4-fluoro-phenyl)-N5-[(2-chlorothiazol-5-yl)methyl]-2-methyl-1,1-dioxo-1,2,6-thiadiazinane-3,5-dicarboxamide] | < 0.05
CN1C(C(=O)Nc2ccc(F)c(Cl)c2)CC(C(=O)NCc2nc(C(F)(F)F)cs2)NS1(=O)=O (single isomer, unassigned) [1202-ISOMER-A, N3-(3-chloro-4-fluoro-phenyl)-2-methyl-1,1-dioxo-N5-[[4-(trifluoromethyl)thiazol-2-yl]methyl]-1,2,6-thiadiazinane-3,5-dicarboxamide] | 0.1 to 10
COC(=O)N1CCC(NC(=O)C2CC(C(=O)Nc3ccc(F)c(Cl)c3)N(C)S(=O)(=O)N2)CC1 (single isomer, unassigned) [Compound 477-ISOMER-A, methyl 4-[[5-[(3-chloro-4-fluoro-phenyl)carbamoyl]-6-methyl-1,1-dioxo-1,2,6-thiadiazinane-3-carbonyl]amino]piperidine-1-carboxylate] | < 0.05
Cc1cc(CNC(=O)C2CC(C(=O)Nc3ccc(F)c(Cl)c3)N(C)S(=O)(=O)N2)n(C)n1 (single isomer, unassigned) [Compound 482-ISOMER-A, N3-(3-chloro-4-fluoro-phenyl)-N5-[(2,5-dimethylpyrazol-3-yl)methyl]-2-methyl-1,1-dioxo-1,2,6-thiadiazinane-3,5-dicarboxamide] | < 0.05
C[C@@H](NC(=O)C1CC(C(=O)Nc2ccc(F)c(Cl)c2)N(C)S(=O)(=O)N1)c1ccc(F)cc1 (single isomer, unassigned) [Compound 493-R] | < 0.05
Cc1ncc(CNC(=O)C2CC(C(=O)Nc3ccc(F)c(Cl)c3)N(C)S(=O)(=O)N2)s1 (single isomer, unassigned) [Compound 495-ISOMER-B, N3-(3-chloro-4-fluoro-phenyl)-2-methyl-N5-[(2-methylthiazol-5-yl)methyl]-1,1-dioxo-1,2,6-thiadiazinane-3,5-dicarboxamide] | < 0.05
CN1C(C(=O)Nc2ccc(F)c(Cl)c2)CC(C(=O)NCc2cnc(C(F)(F)F)s2)NS1(=O)=O (single isomer, unassigned) [Compound 498-ISOMER-A, N3-(3-chloro-4-fluoro-phenyl)-2-methyl-1,1-dioxo-N5-[[2-(trifluoromethyl)thiazol-5-yl]methyl]-1,2,6-thiadiazinane-3,5-dicarboxamide] | 0.1 to 10
Cc1csc(CNC(=O)C2CC(C(=O)Nc3ccc(F)c(Cl)c3)N(C)S(=O)(=O)N2)n1 (single isomer, unassigned) [Compound 686-ISOMER-A, N3-(3-chloro-4-fluoro-phenyl)-2-methyl-N5-[(4-methylthiazol-2-yl)methyl]-1,1-dioxo-1,2,6-thiadiazinane-3,5-dicarboxamide] | 0.1 to 10
Cc1cnc(CNC(=O)C2CC(C(=O)Nc3ccc(F)c(Cl)c3)N(C)S(=O)(=O)N2)s1 (single isomer, unassigned) [Compound 687-ISOMER-A, N3-(3-chloro-4-fluoro-phenyl)-2-methyl-N5-[(5-methylthiazol-2-yl)methyl]-1,1-dioxo-1,2,6-thiadiazinane-3,5-dicarboxamide] | 0.1 to 10
CN1C(C(=O)Nc2ccc(F)c(Cl)c2)CC(C(=O)NCc2nc3ccccc3s2)NS1(=O)=O (single isomer, unassigned) [Compound 689-ISOMER-A, N5-(1,3-benzothiazol-2-ylmethyl)-N3-(3-chloro-4-fluoro-phenyl)-2-methyl-1,1-dioxo-1,2,6-thiadiazinane-3,5-dicarboxamide] | 0.1 to 10
CN1C(C(=O)Nc2ccc(F)c(Cl)c2)CC(C(=O)NCc2cnc(-c3ccccc3)s2)NS1(=O)=O (single isomer, unassigned) [Compound 691-ISOMER-A, N3-(3-chloro-4-fluoro-phenyl)-2-methyl-1,1-dioxo-N5-[(2-phenylthiazol-5-yl)methyl]-1,2,6-thiadiazinane-3,5-dicarboxamide] | 0.1 to 10
